Data on four compounds can be found in ChEMBL document CHEMBL1152107 (Bioorg Med Chem Lett, 1997).

A value given as a limit tells only on which side of the number the result lay.

Assay [1] relates to HCT-116. The assay is described as follows: The compound was evaluated in vitro for inhibition of human colon cancer cell line HCT116. The class given is functional, cell-based.
Assay [2] relates to HCT-116. Description: The compound was evaluated for the cytotoxicity against human colon cancer cell lines(HCT116), activity expressed as IC50 vs IC50 of Paclitaxel. The class given is functional.
For assay [3], the target named is Tubulin alpha chain (Sus scrofa) (UniProt P02550). Description: The compound was evaluated in vitro in a tubulin polymerization assay, activity expressed as potency of compound relative to Paclitaxel. The class given is functional.
The test system of a further assay is M109. The assay is described as follows: The compound was evaluated in vivo for the T/C ratio against M-109 lung carcinoma. The class given is functional, Mus musculus.

Tubulin alpha chain (Sus scrofa), sequence (P02550 whole entry, looked up): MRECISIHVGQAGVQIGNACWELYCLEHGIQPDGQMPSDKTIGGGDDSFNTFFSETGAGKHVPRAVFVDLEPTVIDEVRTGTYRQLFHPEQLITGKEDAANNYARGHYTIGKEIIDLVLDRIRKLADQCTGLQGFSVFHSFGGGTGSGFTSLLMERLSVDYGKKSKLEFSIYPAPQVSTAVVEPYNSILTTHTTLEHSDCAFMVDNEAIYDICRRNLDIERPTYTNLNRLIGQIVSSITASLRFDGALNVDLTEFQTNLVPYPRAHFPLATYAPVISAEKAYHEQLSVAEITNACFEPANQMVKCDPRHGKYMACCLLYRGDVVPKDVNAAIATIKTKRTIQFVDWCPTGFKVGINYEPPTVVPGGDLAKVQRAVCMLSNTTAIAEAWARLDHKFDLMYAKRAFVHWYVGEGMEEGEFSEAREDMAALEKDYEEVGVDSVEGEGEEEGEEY

As for `CC(=O)O[C@H]1C(=O)[C@@]2(C)[C@H]([C@H](OC(=O)c3ccccc3)[C@]3(O)C[C@H](OC(=O)[C@H](O)[C@@H](O)c4ccccc4)C(C)=C1C3(C)C)[C@]1(OC(C)=O)CO[C@@H]1C[C@@H]2O`, the IC50 in the assay on HCT-116 [1] is above 200 nM. The Ratio (in the assay on HCT-116 [2]; in assay [3]) was above 100 each time.

Take `CC(=O)O[C@H]1C(=O)[C@@]2(C)[C@H]([C@H](OC(=O)c3ccccc3)[C@]3(O)C[C@H](OC(=O)[C@H](O)[C@@H](OC(=O)NC(C)(C)C)c4ccccc4)C(C)=C1C3(C)C)[C@]1(OC(C)=O)CO[C@@H]1C[C@@H]2O`: in the assay with HCT-116 [1], the IC50 was found to be 6.6 nM. Further, the T/C with M109 is 166%. Moreover, the Ratio in the assay on HCT-116 [2] worked out at 3.3; in assay [3] it was 1.5.

For `CC(=O)O[C@H]1C(=O)[C@@]2(C)[C@H]([C@H](OC(=O)c3ccccc3)[C@]3(O)C[C@H](OC(=O)[C@H](O)[C@@H](NC(=O)c4ccccc4)c4ccccc4)C(C)=C1C3(C)C)[C@]1(OC(C)=O)CO[C@@H]1C[C@@H]2O` [PACLITAXEL], the T/C with M109 came to 166%. The Ratio with HCT-116 [2] worked out at 1.

With `CC(=O)O[C@@]12CO[C@@H]1C[C@H](O)[C@@]1(C)C(=O)[C@H](O)C3=C(C)[C@@H](OC(=O)[C@H](O)[C@@H](OC(=O)NC(C)(C)C)c4ccccc4)C[C@@](O)([C@@H](OC(=O)c4ccccc4)C12)C3(C)C` (some centres not stated), in the assay on HCT-116 [1], it took 10.3 nM to reach half-maximal inhibition (IC50). Besides, the Ratio in the assay with HCT-116 [2] amounted to 5.1; in assay [3] it was 7.8.

Usually IC50 stands for the concentration needed to halve the response being measured. Low values mean inhibition by little substance, high ones a need for much substance. Usually T/C stands for the result in the treated group divided by that in the control group, in per cent.
